Experimental data as given in paper PMC7155171, “Probing the Open Global Health Chemical Diversity Library for Multistage-Active Starting Points for Next-Generation Antimalarials” (ACS Infectious Diseases, 2020).

Key:
[1] = test system: P. berghei liver stage (PbLuc); assay: P. berghei luciferase liver stage (PbLuc) assay in HepG2-A16-CD81 hepatocytes; format: cell-based, Plasmodium berghei; conditions: Plasmodium berghei; for IC50: HepG2-A16-CD81, 12pt dose response, read-out: PbLuc 12pt dose response: IC50; for Emax: HepG2-A16-CD81, 48 h, 12pt dose response, maximum inhibition
[2] = biological target: recombinant firefly luciferase (Photinus pyralis, UniProt P08659); assay: biochemical; conditions: dose response; for Emax: maximum inhibition, read-out: rLuc inhibition dose response: Maximum inhibition (%); for IC50: read-out: rLuc inhibition dose response: IC50
Chain of recombinant firefly luciferase (P08659 whole entry): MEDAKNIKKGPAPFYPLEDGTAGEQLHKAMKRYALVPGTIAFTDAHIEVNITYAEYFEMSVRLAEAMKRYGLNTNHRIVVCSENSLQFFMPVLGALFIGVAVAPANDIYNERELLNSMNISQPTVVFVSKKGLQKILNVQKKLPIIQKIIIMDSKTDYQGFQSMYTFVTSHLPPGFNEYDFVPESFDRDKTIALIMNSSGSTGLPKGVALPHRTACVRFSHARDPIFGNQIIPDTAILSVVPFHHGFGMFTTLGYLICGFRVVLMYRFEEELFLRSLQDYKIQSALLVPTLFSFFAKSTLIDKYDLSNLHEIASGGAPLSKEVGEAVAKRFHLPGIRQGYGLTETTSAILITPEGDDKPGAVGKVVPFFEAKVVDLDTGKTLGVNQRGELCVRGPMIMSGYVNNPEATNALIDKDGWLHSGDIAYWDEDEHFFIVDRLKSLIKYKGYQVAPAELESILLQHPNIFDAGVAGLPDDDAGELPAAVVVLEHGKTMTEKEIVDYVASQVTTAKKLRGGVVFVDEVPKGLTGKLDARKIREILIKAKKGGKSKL

[3] = HepG2 cytotoxicity screening (CellTiter-Glo); conditions: human, uninfected HepG2-A16-CD81 (EGFP) hepatocytes
[4] = test system: HepG2-A16-CD81 hepatocytes; assay: HepG2 cytotoxicity screening (CellTiter-Glo); conditions: for HepG2 cytotoxicity 12pt dose response: Maximum inhibition (%): 12pt dose response

Row | SMILES | IC50 [1] [µM] | Emax [1] [%] | Emax [2] [%] | IC50 [2] [µM] | IC50 [3] [µM] | HepG2 Cytotoxicity primary screen (2uM): % Inhibition [4] [%] | HepG2 cytotoxicity 12pt dose response: Maximum inhibition (%) [4] [%] | inhibition at 2 µM [3] [%]
1 | COC(=O)c1sc(NCc2ccc(N3CCC(O)CC3)c(F)c2)nc1Cl [UCSD-0616240] | 12.5 | 87.4 | 26.9 | > 25 | 17.7 | 5.85 | 58.9 | –
2 | CCc1nc(CN2CCCN(c3ncnc4ccccc34)CC2)no1 [UCSD-0620461] | 0.691 | 96.1 | 3.79 | > 50 | > 1.85 | – | 60.2 | 6.37
3 | COc1cccc(CNc2cc(C)nc(-c3ccncc3)n2)c1OC [UCSD-0704521] | 4.43 | 104 | 11.7 | > 25 | 9.86 | -4.44 | 80.5 | –
4 | CC(C)Cc1ccc(S(=O)(=O)Nc2ccc(=O)n(C)c2)cc1 [UCSD-0710590] | 0.0472 | 91.6 | 7.28 | > 25 | > 0.31 | – | 60.9 | 3.02
5 | Cn1cc(NS(=O)(=O)c2ccc(OC(F)(F)F)cc2)ccc1=O [UCSD-0710715] | 13.1 | 69.6 | 16.1 | > 25 | > 25 | -4.65 | – | –
6 | COc1c(CNCc2ccc(C(=O)N(C)C(C)C)cc2)c(C)nn1C [UCSD-0723791] | 2.49 | 86.3 | -4.69 | > 25 | 16.6 | – | 53.2 | 0.82
7 | O=C(Nc1ccc(Cl)cn1)c1nn(C2CCS(=O)(=O)C2)c2c1CCCC2 (centres unmarked) [UCSD-0749819] | > 25 | 60 | 2.39 | > 25 | > 25 | – | -0.0195 | -5.58
8 | Cc1cnc(NC(=O)c2csc(NC3CCCC3)n2)s1 [UCSD-0752486] | 8.33 | 93.6 | 65.8 | 24.8 | > 25 | – | 48.7 | –
9 | Cc1[nH]/c(=N\C(=O)c2csc(NC3CCCC3)n2)sc1C [UCSD-0752597] | 0.832 | 121 | 92.3 | 44.4 | 11 | – | 87.9 | 8
10 | O=C(NC1CCCC1)O[C@H]1COCCN(c2nc3ccccc3s2)C1 [UCSD-0785020] | 6.66 | 88.1 | 16.5 | > 25 | > 25 | – | -1.51 | 0.48
11 | CCS(=O)(=O)N1CCc2ccc(NC(=O)Nc3cccc(C)c3)cc21 [UCSD-0785768] | 3.66 | 77.6 | 36.5 | > 50 | > 16.6 | – | 52.3 | 27.5
12 | CCS(=O)(=O)N1CCc2ccc(NC(=O)Nc3cccc(F)c3)cc21 [UCSD-0785772] | 9.31 | 90.3 | 22.1 | > 25 | 17.8 | – | 50.2 | 17.6
13 | Cc1nc(NC(=O)c2c(-n3cnnn3)sc3c2CCCC3)sc1C [UCSD-0786506] | 0.253 | 88.6 | 15 | > 50 | > 50 | – | 4.09 | 10.9
14 | Cc1nc(NC(=O)c2c(-n3cnnn3)sc(C)c2C)sc1C [UCSD-0786548] | 0.0144 | – | 1.63 | > 25 | > 25 | – | 8.84 | 4.63
